Source: patent publication US20260274832A1, “COMPOUNDS AND THEIR USE IN TREATING CANCER” (ASTRAZENECA AB, priority 2023, published 2026)

Legend:
[1] = target: T1, AR (AR-full length) in LNCaP cells (Homo sapiens, UniProt P10275, T878A); test: LNCaP Androgen Receptor Imaging Assay (immunofluorescence of endogenous nuclear AR); type: cell-based; details: 24 h incubation; for DC50: concentration giving 50% of maximum degradation of AR per curve fit, single experiment or average of two or more; for Dmax: LNCaP, maximum degradation observed, normalized as % of positive control (prior art AR PROTAC at 3 μM)
T1 construct: the prostate cancer cell line LNCaP (expressing AR-full length); endogenous in cells; host or cells: LNCaP
T1 sequence (P10275 whole entry T878A): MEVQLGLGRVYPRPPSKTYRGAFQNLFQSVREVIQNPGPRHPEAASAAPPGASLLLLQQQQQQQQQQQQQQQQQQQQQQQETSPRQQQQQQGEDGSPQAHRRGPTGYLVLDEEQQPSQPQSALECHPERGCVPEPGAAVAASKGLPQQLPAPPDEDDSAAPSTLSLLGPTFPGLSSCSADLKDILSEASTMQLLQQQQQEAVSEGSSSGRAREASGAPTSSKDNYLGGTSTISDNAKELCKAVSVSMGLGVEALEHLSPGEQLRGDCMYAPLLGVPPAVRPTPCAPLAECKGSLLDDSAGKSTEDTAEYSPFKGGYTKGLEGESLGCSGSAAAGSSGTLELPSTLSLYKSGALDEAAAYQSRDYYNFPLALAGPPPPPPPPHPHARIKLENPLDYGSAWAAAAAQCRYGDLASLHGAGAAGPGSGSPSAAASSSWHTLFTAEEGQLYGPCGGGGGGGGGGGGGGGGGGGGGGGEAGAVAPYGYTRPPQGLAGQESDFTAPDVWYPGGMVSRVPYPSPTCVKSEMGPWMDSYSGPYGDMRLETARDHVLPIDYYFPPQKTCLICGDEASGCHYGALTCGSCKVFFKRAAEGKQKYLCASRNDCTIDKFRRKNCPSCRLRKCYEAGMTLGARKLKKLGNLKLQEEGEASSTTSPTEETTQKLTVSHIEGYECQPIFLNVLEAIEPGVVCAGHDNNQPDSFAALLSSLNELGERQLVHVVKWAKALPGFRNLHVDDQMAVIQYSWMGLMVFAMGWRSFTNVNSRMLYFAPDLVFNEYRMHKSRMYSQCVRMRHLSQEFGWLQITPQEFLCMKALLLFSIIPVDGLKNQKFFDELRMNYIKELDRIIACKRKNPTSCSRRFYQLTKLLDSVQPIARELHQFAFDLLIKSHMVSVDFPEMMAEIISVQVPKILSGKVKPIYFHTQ
T1 sequence (Q96SW2 whole entry partner): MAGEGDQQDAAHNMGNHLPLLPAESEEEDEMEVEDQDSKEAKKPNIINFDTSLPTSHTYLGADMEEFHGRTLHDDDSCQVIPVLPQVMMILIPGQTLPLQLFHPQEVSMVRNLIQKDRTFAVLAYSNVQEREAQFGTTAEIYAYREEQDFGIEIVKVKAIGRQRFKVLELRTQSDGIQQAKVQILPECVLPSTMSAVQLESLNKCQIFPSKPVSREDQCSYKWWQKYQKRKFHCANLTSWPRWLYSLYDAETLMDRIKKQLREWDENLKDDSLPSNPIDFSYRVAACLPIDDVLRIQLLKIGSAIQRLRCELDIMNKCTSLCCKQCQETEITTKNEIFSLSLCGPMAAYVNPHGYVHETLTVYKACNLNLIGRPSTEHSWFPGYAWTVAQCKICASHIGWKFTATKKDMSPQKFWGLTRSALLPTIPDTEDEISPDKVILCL
Procedure, shortened: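 Endogenous nuclear AR level was imaged by immunofluorescence after 24 h compound exposure (12-point dose response, 0.3% DMSO, 37° C./5% CO2) in LNCaP cells. Data were expressed as % of a 3 μM prior-art AR PROTAC control and fitted (bell fit where a hook appeared) to give DC50 and maximum degradation Dmax.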

[2] = target: T2, AR (L702H) in LNCaP cells (Homo sapiens, UniProt P10275, L702H/T878A); test: LNCaP Androgen Receptor L702H Imaging Assay (LNCaP cells engineered by CRISPR/Cas9); type: cell-based; details: LNCaP cells with AR L702H mutation, 24 h incubation; for DC50: concentration giving 50% of maximum degradation of AR (L702H) per curve fit; for Dmax: LNCaP, maximum degradation observed, normalized as % of positive control
T2 construct: engineered to introduce the mutation L702H into the AR gene using CRISPR/Cas9; endogenous in cells; host or cells: LNCaP cells edited by CRISPR/Cas9 at the AR gene
T2 sequence (P10275 whole entry L702H/T878A): as the sequence (P10275 whole entry T878A) above, with L702H counted along it
T2 sequence (Q96SW2 whole entry partner): as the sequence (Q96SW2 whole entry partner) above
Procedure, shortened: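 AR (L702H) degradation, expressed as DC50 and Dmax from curve fits normalized to a positive degrader control, was measured by high-content imaging of anti-AR immunofluorescence. The engineered LNCaP line was dosed over 12 concentrations for 24 h, 0.3% DMSO final, before PFA fixation.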

| Structure (SMILES) | DC50 [1] | Dmax [1] | DC50 [2] | Dmax [2] |
| --- | --- | --- | --- | --- |
| N#Cc1n[nH]c2c(N3CCC[C@@H](c4ccc(N5CCC(CN6CCN(c7ccc8c(c7)CN(C7CCC(=O)NC7=O)C8=O)CC6)CC5)cc4)C3)ccc(Cl)c12 (stereo partly drawn) [Example 10, 4-Chloro-7-[(3S)-3-{4-[4-({4-[2-(2,6-dioxopiperidin-3-yl)-1-oxo-2,3-dihydro-1H-isoindol-5-yl]piperazin-1-yl}methyl)piperidin-1-yl]phenyl}piperidin-1-yl]-1H-indazole-3-carbonitrile] | 7 nM | 96% | 5 nM | 103% |
| N#Cc1c[nH]c2c(N3CCC[C@@H](c4ccc(N5CCC(CN6CCC(n7ccc8c(N9CCC(=O)NC9=O)cccc87)CC6)CC5)cc4)C3)ccc(Cl)c12 [Example 11] | 9 nM | 102% | 18 nM | 105% |
| N#Cc1c[nH]c2c(N3CCC[C@@H](c4ccc(N5CCC(CN6CCN(c7ccc8c(c7)CN(C7CCC(=O)NC7=O)C8=O)CC6)CC5)cc4)C3)ccc(Cl)c12 (stereo partly drawn) [Example 12, 4-Chloro-7-[(3S)-3-{4-[4-({4-[2-(2,6-dioxopiperidin-3-yl)-1-oxo-2,3-dihydro-1H-isoindol-5-yl]piperazin-1-yl}methyl)piperidin-1-yl]phenyl}piperidin-1-yl]-1H-indole-3-carbonitrile] | 6 nM | 95% | 12 nM | 97% |
| Cn1c(C2CCN(CC3CCN(c4ccc([C@@H]5CCCN(c6ccc(Cl)c7c(C#N)c[nH]c67)C5)cc4)CC3)CC2)cc2ccc(N3CCC(=O)NC3=O)cc21 [Example 13, 4-Chloro-7-[(3S)-3-{4-[4-({4-[6-(2,4-dioxo-1,3-diazinan-1-yl)-1-methyl-1H-indol-2-yl]piperidin-1-yl}methyl)piperidin-1-yl]phenyl}piperidin-1-yl]-1H-indole-3-carbonitrile] | 7 nM | 107% | 6 nM | 109% |
| Cn1c(C2CCN(CC3CCN(c4ccc([C@@H]5CCCN(c6ccc(Cl)c7c(C#N)n[nH]c67)C5)cc4)CC3)CC2)cc2ccc(N3CCC(=O)NC3=O)cc21 [Example 14, 4-Chloro-7-[(3S)-3-{4-[4-({4-[6-(2,4-dioxo-1,3-diazinan-1-yl)-1-methyl-1H-indol-2-yl]piperidin-1-yl}methyl)piperidin-1-yl]phenyl}piperidin-1-yl]-1H-indazole-3-carbonitrile] | 6 nM | 107% | 9 nM | 112% |
| COc1cc(N2CCN(CC3CCN(c4ccc(C5CCN(c6ccc(C)c7c(C#N)c[nH]c67)CC5)cc4)CC3)CC2)cc2c1C(=O)N(C1CCC(=O)NC1=O)C2 (centres unmarked) [Example 15, 7-(4-{4-[4-({4-[2-(2,6-Dioxopiperidin-3-yl)-7-methoxy-1-oxo-2,3-dihydro-1H-isoindol-5-yl]piperazin-1-yl}methyl)piperidin-1-yl]phenyl}piperidin-1-yl)-4-methyl-1H-indole-3-carbonitrile] | 9 nM | 97% | 24 nM | 85% |
| COc1cc(N2CCN(CC3CCN(c4ccc(C5CCN(c6ccc(F)c7c(C#N)c[nH]c67)CC5)cc4)CC3)CC2)cc2c1C(=O)N(C1CCC(=O)NC1=O)C2 (centres unmarked) [Example 20, 7-(4-{4-[4-({4-[2-(2,6-Dioxopiperidin-3-yl)-7-methoxy-1-oxo-2,3-dihydro-1H-isoindol-5-yl]piperazin-1-yl}methyl)piperidin-1-yl]phenyl}piperidin-1-yl)-4-fluoro-1H-indole-3-carbonitrile] | 9 nM | 94% | 8 nM | 101% |
| N#Cc1c[nH]c2c(N3CCC[C@H](c4ccc(N5CCC(CN6CCN(c7ccc8c(c7)CN(C7CCC(=O)NC7=O)C8=O)CC6)CC5)cc4)C3)ccc(Cl)c12 (stereo partly drawn) [Example 21, 4-Chloro-7-[(3R)-3-{4-[4-({4-[2-(2,6-dioxopiperidin-3-yl)-1-oxo-2,3-dihydro-1H-isoindol-5-yl]piperazin-1-yl}methyl)piperidin-1-yl]phenyl}piperidin-1-yl]-1H-indole-3-carbonitrile] | 8 nM | 92% | 7 nM | 103% |
